From article PMC11892125 (BMC Chemistry, 2025)

Target: b-CA-II (bovine carbonic anhydrase II) (Bos taurus, UniProt P00921)
Assay: p-nitrophenyl acetate esterase assay, bovine enzyme, absorbance at […] nm
Format: biochemical

Chain of b-CA-II (bovine carbonic anhydrase II) (P00921 2-260): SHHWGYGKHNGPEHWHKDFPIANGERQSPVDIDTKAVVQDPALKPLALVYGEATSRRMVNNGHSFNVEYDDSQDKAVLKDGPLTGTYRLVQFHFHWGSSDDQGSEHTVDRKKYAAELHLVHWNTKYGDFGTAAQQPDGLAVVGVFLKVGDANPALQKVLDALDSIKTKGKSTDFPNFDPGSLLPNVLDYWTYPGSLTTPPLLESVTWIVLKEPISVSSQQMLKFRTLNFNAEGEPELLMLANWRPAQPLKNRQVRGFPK

IC50: 0.147 ± 0.03 µM
Compound: CCCCCCCC1(O)CS/C(=N\C(=O)c2ccc(Br)cc2)N1c1ccccc1-c1ccccc1 (stereo not shown) [compound 5, (Z)-N-(3-([1,1'-biphenyl]-2-yl)-4-heptyl-4-hydroxythiazolidin-2-ylidene)-4-bromobenzamide]
